Assay results: patent publication US10905775B2, “Particulate constructs for release of active agents” (CELATOR PHARMACEUTICALS, INC., priority 2004, dated 2021)

What was measured:
[1] = Nanoparticle size by dynamic light scattering (DLS); format: physicochemical; settings: control: unconjugated paclitaxel + VitES + mPEG5-PCL7
Method: A 300 mM sucrose solution is prepared, loaded into a 100 ml gas tight syringe, and fixed on a second syringe pump. […] At the mixer outlet, two samples are collected. The first sample is collected in a scintillation vial and analyzed for particle size by dynamic light scattering (DLS), and the second sample is collected in low temperature freezer vials, and freeze-dried. The freeze-drying cycle is the following: −40° C. overnight, −10° C. for a day, 4° C. for a day, and then room temperature for one day. […] The samples are checked visually for crystals/aggregates formation. […] A freeze-dried sample is dissolved in methanol to dissociate the nanoparticles, and the solution is tested for the presence of THF using CGC. Particle size may be determined by DLS. […] The sample collected in a scintillation vial from the mixer effluent is inserted into the DLS sample cell containing decalin scintillation fluid (maintained at 25° C. using a temperature bath), and left to equilibrate to the cell temperature. The run duration is 60 seconds, replicated three times. The particle size expressed as the hydrodynamic diameter is obtained using an ALV 5000 correlator and a second order cumulant fit.

[2] = Visual check / description of nanoparticle samples for crystals, aggregates, stability; format: physicochemical; settings: control: unconjugated paclitaxel 8 mg + VitES 10 mg + mPEG5-PCL7 in THF mixed against water
Method: A 300 mM sucrose solution is prepared, loaded into a 100 ml gas tight syringe, and fixed on a second syringe pump. […] At the mixer outlet, two samples are collected. The first sample is collected in a scintillation vial and analyzed for particle size by dynamic light scattering (DLS), and the second sample is collected in low temperature freezer vials, and freeze-dried. The freeze-drying cycle is the following: −40° C. overnight, −10° C. for a day, 4° C. for a day, and then room temperature for one day. […] The samples are checked visually for crystals/aggregates formation. […] A freeze-dried sample is dissolved in methanol to dissociate the nanoparticles, and the solution is tested for the presence of THF using CGC.

particles detected by Dynamic Light Scattering [1]: no particles were detected
time after mixing at which crystals were visible [2]: about 20 minutes
SMILES: CC(=O)O[C@H]1C(=O)[C@@]2(C)[C@H]([C@H](OC(=O)c3ccccc3)[C@]3(O)C[C@H](OC(=O)[C@H](O)[C@@H](NC(=O)c4ccccc4)c4ccccc4)C(C)=C1C3(C)C)[C@]1(OC(C)=O)CO[C@@H]1C[C@@H]2O [paclitaxel]
